Values quoted from earlier work, collected in the CATMoS acute toxicity set (Mansouri et al. 2021).
Several values for one entry are separate records, joined by “and”; a condition that tells them apart may be missing. Equal values may be shown once.

Assay: rat acute oral toxicity
Details: in vivo
Excerpt: […]The data set underlying the modeling effort for this project was initially compiled by NICEATM and U.S. EPA’s CCTE. Briefly, LD50 data were collected from rat acute oral systemic toxicity tests, including limit tests, ranges/confidence intervals, and discrete LD50 values. The full data set included 21,200 LD50 entries for 15,688 substances. […] Data were reviewed to ensure that LD50 values with obvious errors in the extracted data such as unit conversion errors (e.g., comma and decimal separator misplacements) were either fixed or removed. After this review, 16,209 LD50 values remained. Many of the chemicals represented had multiple LD50 entries, requiring that a single representative value per Chemical Abstracts Service Registry Number (CASRN) identifier be defined to facilitate modeling efforts. Based on ATWG feedback and to define the representative LD50 as a protective value while accounting for the distribution across multiple LD50s, the median of the lowest quartile was computed using only discrete LD50 values (omitting limit test data and range and confidence interval data). A detailed summary of the data compilation is available online on the NICEATM webpage dedicated to the collaborative modeling project (NTP 2020).
[…][…] For categorical designations, limit test and range/confidence interval LD50 data were integrated wherever possible. As such, the number of chemicals with end point values/calls varies across the modeling end points (Table 3) based on whether chemicals had representative LD50 values and/or other data. If a chemical had both, the representative value was used to determine categorical calls rather than limit test data. Some data were useable only for certain end points and categories depending on the thresholds. For example, ranges that spanned multiple hazard categories were considered only for the binary (very toxic/nontoxic) end points and omitted from rendering a determination for hazard category assignment.
[…]The final data set comprising 11,992 chemicals was split into training and evaluation sets […], respectively. This process was performed semirandomly by ordering chemicals based on the five end points (categorical and continuous LD50 values) and partitioning every fourth record into the evaluation set accordingly. This approach was taken to ensure an equivalent distribution of the LD50 values and the different hazard categories between the training and the evaluation sets without supervised sampling of the chemicals based on structures (Figure 1A). The sources of the chemical structures were also kept equivalent between the two sets, with chemical structures obtained from DSSTox, being the highest quality, representing over 75% of each set (Figure 1B).
In the case of `O=C(O)c1cn(C2CC2)c2cc(Cl)c(F)cc2c1=O`, the LD50 is listed as 583 mg/kg.
In the case of `CC[N+](CC)(CC)CCO`, the LD50 is given as 1000 mg/kg.
In the case of `COCCOCc1ccccc1`, the LD50 is listed as 2290 mg/kg.
For `COP(=S)(OC)OC1C2(C)CCC(C2)C1(C)C` (stereo not drawn), the LD50 is listed as 250 mg/kg.
For `CCOP(=O)(OCC)O/C(=C\Cl)c1cc(Cl)ccc1Cl`, the LD50 is listed as 35 mg/kg.
In the case of `O=C1C(Cl)C2(Cl)C3C(Cl)OCC3C1(Cl)C2(Cl)Cl` (stereo not drawn), the LD50 is listed as 100 mg/kg.
In the case of `O=[N+]([O-])c1cc([N+](=O)[O-])c2nc(C(F)(F)F)[nH]c2c1`, the LD50 is given as 11.5 mg/kg.
In the case of `CC(c1ccc(Cl)cc1)c1ccc(Cl)cc1`, the LD50 is given as 1000 mg/kg.
For `CCc1nc(N)nc(N)c1-c1ccc(Cl)cc1`, the LD50 is listed as 440 mg/kg.
For `CCCCCCCCCc1cc(C)cc(Cc2cc(C)cc(CCCCCCCCC)c2O)c1O`, the LD50 is listed as 33000 mg/kg.
For `O=[N+]([O-])c1cc[n+]([O-])cc1`, the LD50 is listed as 107 mg/kg.
In the case of `Cc1cc2c(C(C)C)c(O)c(O)c(C=O)c2c(O)c1-c1c(C)cc2c(C(C)C)c(O)c(O)c(C=O)c2c1O`, the LD50 is given as 2320 mg/kg.
In the case of `CCCCN(CCCC)CCCC`, the LD50 is given as 114 mg/kg.
For `CCCC[P+](CCCC)(CCCC)Cc1ccc(Cl)s1`, the LD50 is given as 455 mg/kg.
For `Fc1c(Br)c(Br)c2nc(C(F)(F)F)[nH]c2c1Br`, the LD50 is listed as 9.64 mg/kg.
For `Cc1cccc(C)c1N(C(=O)CCl)C1CCOC1=O` (stereo not drawn), the LD50 is given as 2600 mg/kg.
For `CNCC(O)c1ccc(OC(=O)C(C)(C)C)c(OC(=O)C(C)(C)C)c1` (stereo not drawn), the LD50 is given as 183 mg/kg.
In the case of `OC(CN1CCCCC1)c1cc(-c2ccccc2)on1` (stereo not drawn), the LD50 is listed as 1980 mg/kg.
For `CCOc1ccccc1N1CCN(CCC=Cc2ccc3c(c2)CCC(=O)N3)CC1`, the LD50 is listed as 500 mg/kg.
In the case of `O=C1NC2CCCCN2C12CCN(CCCN1c3ccccc3CCc3ccc(Cl)cc31)CC2` (stereo not drawn), the LD50 is given as 4910 mg/kg.
For `CN(N=O)C(=O)C(=O)N(C)N=O`, the LD50 is listed as 96 mg/kg.
For `CCCCC(CC)CCC(CCC(CC)CC)OS(=O)(=O)O` (stereo not drawn), the LD50 is listed as 1430 mg/kg.
For `C=CCCC=O`, the LD50 is given as 620 mg/kg.
In the case of `CN(Sc1ccc(F)cc1)C(=O)Oc1cccc2c1OC(C)(C)C2`, the LD50 is given as 25 mg/kg.
In the case of `COP(=S)(OC)SC1CCSc2ccc(Cl)cc21` (stereo not drawn), the LD50 is given as 200 mg/kg.
For `CCOP(=S)(OCC)Oc1ccc([N+](=O)[O-])c(Cl)c1`, the LD50 is given as 50 mg/kg.
For `COC(=O)c1ccc(N=NN(C)C)cc1`, the LD50 is listed as 52 mg/kg.
For `CCCCCCOC(=O)CC(C(=O)OCCCCCC)S(=O)(=O)O` (stereo not drawn), the LD50 is listed as 1750 mg/kg.
For `COc1nccnc1NS(=O)(=O)c1ccc(N)cc1`, the LD50 is listed as 2740 mg/kg.
In the case of `COP(=S)(OC)SC1CCC2C=CCC1S2` (stereo not drawn), the LD50 is listed as 1000 mg/kg.
In the case of `Ic1ccc(Nc2nnc(CCN3c4ccccc4Sc4ccccc43)s2)cc1`, the LD50 is given as 3100 mg/kg.
For `O=C(O)C(Cl)Cl`, the LD50 is given as 5280 mg/kg and 2820 mg/kg.
For `CCOCCOCC`, the LD50 is listed as 4390 mg/kg.
In the case of `Cc1cccs1`, the LD50 is given as 3200 mg/kg.
For `CC(C)(C)CON=CC1C(C(=O)OC(C#N)c2cccc(Oc3ccccc3)c2)C1(C)C` (stereo not drawn), the LD50 is listed as 143 mg/kg.
In the case of `CCc1cnc(C)cn1`, the LD50 is listed as 900 mg/kg.
In the case of `COc1ccc(CC(=O)O)cc1`, the LD50 is listed as 1550 mg/kg.
In the case of `c1ccc2sc(SN(C3CCCCC3)C3CCCCC3)nc2c1`, the LD50 is given as 6420 mg/kg.
For `CCc1ccc(C)cc1O`, the LD50 is given as 530 mg/kg.
In the case of `Nc1nc2cc(Cl)c(Br)cc2o1`, the LD50 is given as 140 mg/kg.
In the case of `O=S1(=O)CC=CC1`, the LD50 is listed as 2550 mg/kg.
In the case of `Nc1cccc(-n2ccccc2=O)c1`, the LD50 is listed as 2300 mg/kg.
In the case of `O=C(Cl)Oc1cccc2ccccc12`, the LD50 is given as 2550 mg/kg.
In the case of `Cc1cc(=O)[nH]c(=O)[nH]1`, the LD50 is listed as 64500 mg/kg.
In the case of `Cc1cc(C)[nH]n1`, the LD50 is listed as 1720 mg/kg.
For `O=C(O)c1nn(Cc2ccc(Cl)cc2Cl)c2ccccc12`, the LD50 is given as 1700 mg/kg.
For `CC(C)c1ccc(CO)cc1`, the LD50 is given as 1020 mg/kg.
In the case of `CN(CCO)CC(O)Cn1cnc2c1c(=O)n(C)c(=O)n2C` (stereo not drawn), the LD50 is given as 14100 mg/kg.
In the case of `CCN(CC)C(C)=O`, the LD50 is listed as 1500 mg/kg.
For `CCCCCCN`, the LD50 is listed as 670 mg/kg.
For `COP(=S)(OC)SC1CSC=CO1` (stereo not drawn), the LD50 is given as 100 mg/kg.
For `COc1cc(C(Cl)(Cl)Cl)cc(Cl)n1`, the LD50 is listed as 1500 mg/kg.
For `CCOC(=O)N(C)CC1CCN(c2nc(N)c3cc(OC)c(OC)cc3n2)CC1`, the LD50 is given as 660 mg/kg.
For `Cl[C@H]1[C@H](Cl)[C@@H](Cl)[C@H](Cl)[C@H](Cl)[C@H]1Cl` (racemic), the LD50 is given as 177 mg/kg.
For `CC(=O)OCCC1=CC2CC(C1)C2(C)C` (stereo not drawn), the LD50 is listed as 3000 mg/kg.
For `Cc1cc(CCN2CCN(c3cccc(Cl)c3)CC2)n[nH]1`, the LD50 is given as 570 mg/kg.
For `FC(F)(F)c1nc2c(Cl)cccc2[nH]1`, the LD50 is given as 19.2 mg/kg.
In the case of `CCOC(=O)c1ccc(OC)cc1`, the LD50 is listed as 2040 mg/kg.
For `Clc1cccc(C(Cl)(Cl)Cl)n1`, the LD50 is listed as 940 mg/kg.
For `C#CCOc1ccccc1OC(=O)NC`, the LD50 is given as 60 mg/kg.
For `O=C(O)c1cc(N=Nc2ccc(S(=O)(=O)O)cc2)ccc1O`, the LD50 is given as 14000 mg/kg.
For `CCOP(=O)(OCC)OC(=C(Br)Br)c1ccc(Cl)cc1Cl`, the LD50 is listed as 78.1 mg/kg.
In the case of `CCOP(=O)(OCC)SCn1nc(C)ccc1=O`, the LD50 is listed as 6.5 mg/kg.
